# Tests used:
# [1] = target: N-terminal HIS tagged HSP70 (Homo sapiens, UniProt P0DMV8); assay: Small molecule binding to HSP70 using SPR (Biacore T200)
# Procedure: SPR experiments were conducted using the Biacore T200. Approximately 20,000 RU of N-terminal HIS tagged HSP70 was immobilized on a multi-dentate NTA derivatized linear carboxylate sensor chip (NICH1500M, Xantec Bioanalytics). The running buffer was PBS containing 2 mM MgCl2, 0.05% Tween, and 5% DMSO. Test compounds were diluted at 20× final concentration in 100% DMSO and then diluted into running buffer without DMSO so that the DMSO concentrations in both the sample and the running buffer were similar. Flow rate was 30 μL/min, contact time for each sample concentration was 30 seconds, followed by a 60 second dissociation time. Data were analyzed using the Biacore evaluation software and the resulting sensograms exported and re-plotted in GraphPad Prism.
# The next studies sought to determine whether AP-4-139B interacts directly with HSP70. To accomplish this, full-length His-tagged human HSP70 was used, and it was immobilized on a high affinity poly-Ni-NTA sensor chip for surface plasmon resonance experiments on a Biacore T200. This HSP70-loaded chip was incubated with AP-4-139B or the negative control VY-3-277. As a positive control the adenosine-derived HSP70 inhibitor Ver-155008 was used (Massey et al., Cancer Chemother Pharmacol. 2010 August; 66(3):535-45).
# [2] = system: MC38 and CT26; assay: Alamar Blue cell viability assay, mouse CRC cell lines; assay type: cell-based; settings: 72 hours
# Procedure: (§1) FIGS. 5A-5F show AP-4-139B is efficacious against CRC in an immunocompetent model, and causes immune cell recruitment. FIGS. 5A-5B: Mouse CRC cell lines, MC38 (FIG. 5A) and CT26 (FIG. 5B), were plated at a density of 1,000 cells per well in 96-well plates. The next day, cells were treated with the indicated inhibitors for 72 hours. Cells were then subjected to the Alamar Blue cell viability assays. Shown are representative IC50 values of an average of six technical replicates and two biological replicates. FIG. 5C: Mouse CRC cell lines MC38 and CT26 were treated with 10 μM AP-4-139B for 24 or 48 hours and immunoblotted for HSP70, p53, AKT, Cleaved Lamin A (CLA), Cleaved Caspase 3, MRPS14, and GAPDH (loading control). The doublet detected for HSP70 is seen in other murine cell lines, and may represent a degradation product or post-translational modification. FIG. 5D: 1×10^6 MC38 cells were injected subcutaneously into the right flank of 6-8 week old male C57Bl/6 mice. Once tumors reached an approximate volume of 50 mm^3, mice were separated randomly into two groups: vehicle vs. AP-4-139B. Mice were treated with 10 mg/kg AP-4-139B every 48 hours. All mice were euthanized 20 days after the start of treatment. Tumor volumes were recorded using digital calipers and using the formula v=length×width^2×0.52. *** p<0.001. n=15 mice per group.
# [3] = system: mutant p53 and MRPS14; assay: Western blot in mouse CRC cell lines; assay type: cell-based; settings: 10 μM, 24 or 48 hours
# Procedure: as §1
# [4] = system: CRC cell lines (SW620, HT-29, HCT 116+/−p53, RKO, and LS411N); assay: Alamar Blue cell viability assay, human CRC panel; assay type: cell-based; settings: Homo sapiens; 72 hours; read-out: IC50, cytotoxicity in all CRC cell lines
# Procedure: FIGS. 4A-4F show AP-4-139B is efficacious as a single agent against human CRC in vitro and in vivo. FIG. 4A: Three CRC cell lines (HT-29, LS411N, and SW620) were treated with 10 μM of PET-16 or AP-4-139B for 48 hours. Cell were then subjected to viability assays using Trypan Blue exclusion. *** p<0.001. […] FIGS. 4B-4C: A panel of six CRC cell lines (SW620, HT-29, HCT 116+/−p53, RKO, and LS411N) were plated at a density of 1,000 cells per well in 96-well plates. The next day, cells were treated with the indicated inhibitors for 72 hours. Cells were then subjected to the Alamar Blue cell viability assays. Shown are representative IC50 values of an average of six technical replicates and two biological replicates. FIG. 4D: 2.5×10^6 HT-29 cells were injected subcutaneously into the right flank of NSG mice. Once tumors reached an approximate volume of 100 mm^3, mice were separated randomly into two groups: control vs. AP-4-139B. Mice were treated with 12.5 mg/kg AP-4-139B three times a week. All mice were euthanized 22 days after the start of treatment. Tumor volumes were recorded using digital calipers and using the formula v=length×width^2×0.52. *** p<0.001. n=10 mice per group. FIG. 4E: Immunohistochemistry (IHC) analysis of HT-29 xenograft tumors treated with AP-4-139B. Shown are representative images (4-6 random fields of view per condition) of Ki67 (proliferation) and Cleaved Lamin A (cell death). n=4 mice per group. Scale bar=100 μm. Respective IgG antibody was used as the negative control.
# [5] = system: WM983B tumor xenografts; assay: WM983B melanoma xenograft in NSG mice; assay type: in vivo, mouse; settings: 12.5 mg/kg i.p. twice per week
# Procedure: WM983B tumor xenografts were established in NSG mice. […] Tumors were collected at the end of the experiment and assessed for the level of the client protein MRPS14.
# FIG. 18 comprises a series of images illustrating IHC of WM983B treated tumors using IgG negative control or antisera to MRPS14t.
# AP-4-139B was tested as a single agent in a WM983B melanoma xenograph in mice. WM983B tumor xenografts were established in NSG mice. […] Tumors were collected at the end of the experiment and assessed for the level of the client protein MRPS14.
# N-terminal HIS tagged HSP70, sequence (P0DMV8 whole entry): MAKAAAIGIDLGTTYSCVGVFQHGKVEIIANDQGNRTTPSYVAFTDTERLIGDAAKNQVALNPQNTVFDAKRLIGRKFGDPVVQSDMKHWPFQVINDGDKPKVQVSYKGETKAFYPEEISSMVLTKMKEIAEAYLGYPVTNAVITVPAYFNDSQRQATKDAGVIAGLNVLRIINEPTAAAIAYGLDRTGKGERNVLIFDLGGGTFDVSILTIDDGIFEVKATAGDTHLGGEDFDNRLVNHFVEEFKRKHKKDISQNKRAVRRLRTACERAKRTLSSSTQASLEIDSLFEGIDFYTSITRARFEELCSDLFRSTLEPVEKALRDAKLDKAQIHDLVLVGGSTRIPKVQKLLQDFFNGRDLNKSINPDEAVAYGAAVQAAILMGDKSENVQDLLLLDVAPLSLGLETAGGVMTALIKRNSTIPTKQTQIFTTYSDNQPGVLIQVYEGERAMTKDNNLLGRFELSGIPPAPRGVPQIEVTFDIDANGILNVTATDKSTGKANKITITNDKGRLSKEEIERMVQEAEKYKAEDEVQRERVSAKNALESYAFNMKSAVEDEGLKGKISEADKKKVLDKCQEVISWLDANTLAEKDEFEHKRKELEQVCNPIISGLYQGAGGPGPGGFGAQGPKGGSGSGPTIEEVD
compound,measurement,setting,value
"c1ccc(-c2cn3nc(CCCCCC[P+](c4ccccc4)(c4ccccc4)c4ccccc4)sc3n2)cc1 [AP-4-139B, Triphenyl(6-(6-phenylimidazo[2,1-b][1,3,4]thiadiazol-2-yl)hexyl)phosphonium bromide]",binding to sensor chips loaded with HSP70,[1],reproducibly bound in concentration-dependent manner
same,IC50s in murine CRC lines (in words),[2],comparable to that of oxaliplatin
same,levels of mutant p53 and MRPS14 in MC38 cells,[3],decreased levels
same,IC50,[4],1500 to 3000 nM
same,level of client protein MRPS14 in tumors (IHC),[5],lose mitochondrial protein MPS14
same,"tumor growth, WM983B xenograft",[5],inhibit tumor growth
